Patent EP0003008A1 (priority 1977, dated 1979)
“And” between values parts separate entries of the source, which are not always exact repeats. Equal entries are not always repeated. Where two headings read alike, the source gives them in different places.

Assays:
[1] = biological target: cell-free influenza polymerase (Influenza A virus, UniProt P03431); assay: Cell-free influenza polymerase assay; format: biochemical; settings: in diluted urine; assay mixture includes Mn2+; used as standard; read-out: 50% inhibition
cell-free influenza polymerase, sequence (P03431 whole entry, looked up): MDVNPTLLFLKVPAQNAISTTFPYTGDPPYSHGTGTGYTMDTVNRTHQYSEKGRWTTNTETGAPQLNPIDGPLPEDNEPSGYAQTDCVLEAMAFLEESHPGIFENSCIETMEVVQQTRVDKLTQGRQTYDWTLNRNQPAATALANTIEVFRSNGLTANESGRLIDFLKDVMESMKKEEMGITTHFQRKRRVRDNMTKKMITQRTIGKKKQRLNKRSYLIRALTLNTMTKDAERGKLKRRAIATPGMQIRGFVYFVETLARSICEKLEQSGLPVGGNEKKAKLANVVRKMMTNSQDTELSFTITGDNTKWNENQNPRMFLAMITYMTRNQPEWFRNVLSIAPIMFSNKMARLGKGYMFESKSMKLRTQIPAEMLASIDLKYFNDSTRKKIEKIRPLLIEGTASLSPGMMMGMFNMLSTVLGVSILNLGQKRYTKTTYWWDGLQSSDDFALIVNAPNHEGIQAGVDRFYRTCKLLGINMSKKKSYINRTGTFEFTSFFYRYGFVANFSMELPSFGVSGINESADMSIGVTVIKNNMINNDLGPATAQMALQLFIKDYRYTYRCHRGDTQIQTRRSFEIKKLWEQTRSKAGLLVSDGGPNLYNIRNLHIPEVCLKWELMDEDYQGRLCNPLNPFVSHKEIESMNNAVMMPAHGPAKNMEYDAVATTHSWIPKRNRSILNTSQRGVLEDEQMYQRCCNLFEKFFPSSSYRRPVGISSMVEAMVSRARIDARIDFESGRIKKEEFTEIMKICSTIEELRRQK

[2] = Acid stability test in 0.1 N HCl, thin layer chromatography estimate of decomposition products; format: physicochemical; settings: 100 µg compound applied
Method: The acid stability was investigated by dissolving 5 mg of each compound in 1 ml of 0.1 N HC1 in a test tube. For use as references 0.2 ml of each solution was withdrawn, immediately treated with 0.2 ml of a 10 % aqueous solution of NaHCO3 and frozen. The remaining 0.8 ml of each solution was incubated at 37°C for 2 hours. After incubation, 0.8 ml of a 10 % aqueous solution of NaHCO3 was added to each solution and the solutions were frozen. The incubated compounds and the reference compounds were ly ophilized to dryness and redissolved in distilled H20, 0.2 ml and 1.0 ml respectively, for each reference solution and incubated solution. The solutions were applied to silica gel (Merck PF254, 20x20 cm) and polyethylene imine (Macherey-Nagel PEI, 20x20 cm) thin layer plates. A total of 20 µl of the reference solutions (100 µg compound) and 25 µl of the incubated solutions (100 µg compound) were applied. To each plate was also added, as references, solutions of phosphorous acid (H2HPO3) (5 and 20 µg) and of trisodiumphosphonoformate (5 and 20 µg). (Decomposition of phosphonoformic acid at low pH produces phosphorous acid).
The silica gel plates were prepared in duplicate and eluted with a solution composed of methanol - 10% aq ammonia - trichloroacetic acid - water (50-15-5-3, v/v) and the polyethylene imine plates were eluted with a 1M aq lithium chloride solution. After elution the plates were dried. One of the duplicated silica gel plates was sprayed with 4 % aq . (NH4)2MoO4 and the polyethylene imine plates were sprayed with a solution composed of 60 % HClO4 - 0.1N aq Hcl - 4% aq (NH4)2MoO4 - H2O (5-10-25-60, v/v). The silica gel plates were hriefly dried at 80-90°C and sprayed with 1% SnCl2 in 10% aq RCl. phosphorous acid and phosphonic acid groups appeared as blue apots on the siliea gel plates (System 1) and as white spots on the polyethylene imine plates (System II). The remaining duplicate silica gel plates were exposed to iodine vapor for detection of di- and triesters of phosphonoformic acid. […]

[3] = 10 µmol intraperitoneally, urine from two male mice
[4] = tested on: influenza (WSN Wilson Smith Neurotropic type A); assay: Plaque assay of influenza (WSN) on cell monolayers; format: cell-based, influenza virus (WSN); settings: conc. of test compound 500 μM, 34°C for 4 days, two values given
[5] = incubated in 0.1 N HCl at 37°C for 2 hours

Row | Structure (SMILES) | Estimated formation of phosphorous acid [2, 5] | Recovered phosphonoformic acid activity in urine ([3]; Day 1) | Recovered phosphonoformic acid activity in urine ([3]; Day 2) | Recovered phosphonoformic acid activity in urine ([3]; Day 3) | also measured
1 | O=C(O)P(=O)(O)O [Phosfonoformic acid, phosphonoformic acid] |  |  |  |  | IC50 [1]: 500 nM
2 | NC(=O)P(=O)(O)O [R1=Na R2=Na R4=H R5=H] | 15 µg |  |  |  | Estimated formation of phosphorous acid ([2]; non-incubated reference solution (figure in parenthesis)): 5 µg
3 | O=C(O)P(=O)(O)O [Trisodiumphosphonoformate, reference compound] | > 20 µg | 1.25 µmol phosphonoformic acid | 0.13 µmol phosphonoformic acid | <0.01 µmol phosphonoformic acid | 
4 | CCOP(=O)(OCC)C(=O)N(CC)CC [VIS 228, diethyl diethylcarbamoylphosphonate] |  |  |  |  | Inhibition (%) [4]: 25% and 37%
5 | CCN(CC)C(=O)P(=O)([O-])[O-].[Na+].[Na+] [VIS 232, disodium diethylcarbamoylphosphonate] |  | 0.63 µmol phosphonoformic acid | 0.36 µmol phosphonoformic acid | <0.01 µmol phosphonoformic acid | 
